{"source": "patent US10189841B2", "about": "“Purinones as ubiquitin-specific protease 1 inhibitors” (Forma Therapeutics, Inc., priority 2015, dated 2019)", "note": "pIC50: −log10 of the molar value."}
{"molecular_target": "USP1 (construct USP1 (I-785, GG670, 671AA)/UAF1 (I-677)-Flag) (Homo sapiens (Human), UniProt O94782, G670A/G671A)", "sequence (O94782 whole entry G670A/G671A)": "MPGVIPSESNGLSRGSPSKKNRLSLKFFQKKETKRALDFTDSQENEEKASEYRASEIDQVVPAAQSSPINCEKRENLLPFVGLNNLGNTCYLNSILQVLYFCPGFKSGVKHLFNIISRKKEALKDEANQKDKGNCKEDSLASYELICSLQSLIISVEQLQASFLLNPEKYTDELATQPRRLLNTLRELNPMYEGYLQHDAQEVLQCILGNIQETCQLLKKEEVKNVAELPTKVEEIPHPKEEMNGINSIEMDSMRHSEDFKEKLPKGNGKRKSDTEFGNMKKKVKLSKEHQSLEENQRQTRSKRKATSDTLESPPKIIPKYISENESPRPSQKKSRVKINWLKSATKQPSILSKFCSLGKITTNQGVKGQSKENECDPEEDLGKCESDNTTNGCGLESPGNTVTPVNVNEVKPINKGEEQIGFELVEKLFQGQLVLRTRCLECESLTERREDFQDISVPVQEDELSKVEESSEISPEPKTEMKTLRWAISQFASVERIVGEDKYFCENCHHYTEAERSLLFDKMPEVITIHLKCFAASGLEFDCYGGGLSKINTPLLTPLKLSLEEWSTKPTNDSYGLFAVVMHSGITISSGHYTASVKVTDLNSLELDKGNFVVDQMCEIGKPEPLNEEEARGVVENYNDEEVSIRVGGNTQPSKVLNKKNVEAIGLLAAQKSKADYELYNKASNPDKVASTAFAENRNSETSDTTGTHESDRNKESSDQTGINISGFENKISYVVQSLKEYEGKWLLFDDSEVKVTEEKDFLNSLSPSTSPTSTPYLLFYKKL", "sequence (Q8TAF3 whole entry partner)": "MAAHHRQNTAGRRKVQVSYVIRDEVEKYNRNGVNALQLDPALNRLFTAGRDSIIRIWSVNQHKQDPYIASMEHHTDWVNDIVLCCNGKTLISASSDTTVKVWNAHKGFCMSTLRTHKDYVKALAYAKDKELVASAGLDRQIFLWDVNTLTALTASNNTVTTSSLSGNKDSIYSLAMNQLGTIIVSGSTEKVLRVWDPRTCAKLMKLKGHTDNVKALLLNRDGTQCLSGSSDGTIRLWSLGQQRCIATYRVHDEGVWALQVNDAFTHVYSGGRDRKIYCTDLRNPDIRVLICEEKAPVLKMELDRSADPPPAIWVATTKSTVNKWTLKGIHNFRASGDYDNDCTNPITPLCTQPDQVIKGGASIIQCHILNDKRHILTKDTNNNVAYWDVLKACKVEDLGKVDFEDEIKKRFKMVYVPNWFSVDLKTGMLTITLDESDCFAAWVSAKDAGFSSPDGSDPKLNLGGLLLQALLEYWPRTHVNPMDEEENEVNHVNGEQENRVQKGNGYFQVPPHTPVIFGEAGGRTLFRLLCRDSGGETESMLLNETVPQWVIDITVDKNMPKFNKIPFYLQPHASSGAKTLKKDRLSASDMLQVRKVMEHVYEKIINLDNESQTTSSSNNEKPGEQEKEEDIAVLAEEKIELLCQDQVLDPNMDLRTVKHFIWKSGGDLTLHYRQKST", "test": "Ubiquitin-Rhodamine 110 assay for USP1 activity", "type": "biochemical", "conditions": "USP1/UAF1 25 pM, Ub-Rh110 25 nM, 30 min preincubation", "method_in_brief": "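Ub-Rh110 (25 nM, ≪Km) cleavage read at ex 485/em 535 in Tris pH 8.0, CaCl2, GSH, Prionex, Triton X-100. The screen used 10 µM compound, 100 pM USP1/UAF1 and 45 min at RT.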"}
{"smiles": "Cc1cccn1-c1ccc(Cn2c(=O)[nH]c3cnc(-c4cccnc4C(C)C)nc32)cc1", "note": "[Compound I-54, 2-(2-isopropylpyridin-3-yl)-9-(4-(2-methyl-1H-pyrrol-1-yl)benzyl)-7,9-dihydro-8H-purin-8-one]", "pIC50": "5.70 to 6.70"}
{"smiles": "CC(C)c1c(F)cccc1-c1ncc2[nH]c(=O)n(Cc3ccc(-n4ncc5c4CNC5)cc3)c2n1", "note": "[Compound I-103, 9-(4-(5,6-dihydropyrrolo[3,4-c]pyrazol-1(4H)-yl)benzyl)-2-(3-fluoro-2-isopropylphenyl)-7,9-dihydro-8H-purin-8-one]", "pIC50": "6.70 to 7.30"}
{"smiles": "CC(C)c1ccccc1-c1ncc2c(n1)n(CC1CCN(S(=O)(=O)c3nccn3C)CC1)c(=O)n2C", "note": "[Compound I-451, 2-(2-isopropylphenyl)-7-methyl-9-((1-((1-methyl-1H-imidazol-2-yl)sulfonyl)piperidin-4-yl)methyl)-7,9-dihydro-8H-purin-8-one]", "pIC50": "5.70 to 6.70"}
{"smiles": "CC(C)c1ncccc1-c1ncc2[nH]c(=O)n(Cc3cc(F)c(-c4nc(C(F)(F)F)cn4C)c(F)c3)c2n1", "note": "[Compound I-82, 9-(3,5-difluoro-4-(1-methyl-4-(trifluoromethyl)-1H-imidazol-2-yl)benzyl)-2-(2-isopropylpyridin-3-yl)-7,9-dihydro-8H-purin-8-one]", "pIC50": "> 7.30"}
{"smiles": "CC(C)c1ccccc1-c1ncc2c(n1)n(Cc1ccc(N(C)S(=O)(=O)c3nccn3C)cc1)c(=O)n2C", "note": "[Compound I-457, N-(4-((2-(2-isopropylphenyl)-7-methyl-8-oxo-7,8-dihydro-9H-purin-9-yl)methyl)phenyl)-N,1-dimethyl-1H-imidazole-2-sulfonamide]", "pIC50": "6.70 to 7.30"}
{"smiles": "CC(C)c1ccccc1-c1ncc2c(n1)n(Cc1ccc(-c3ncsc3CO)cc1)c(=O)n2C", "note": "[Compound I-305, 9-(4-(5-(hydroxymethyl)thiazol-4-yl)benzyl)-2-(2-isopropylphenyl)-7-methyl-7,9-dihydro-8H-purin-8-one]", "pIC50": "> 7.30"}
{"smiles": "Cc1nc(N2CCC(Cn3c(=O)n(C)c4cnc(-c5ccccc5C(C)C)nc43)CC2)c(C)s1", "note": "[Compound I-494, 9-((1-(2,5-dimethylthiazol-4-yl)piperidin-4-yl)methyl)-2-(2-isopropylphenyl)-7-methyl-7,9-dihydro-8H-purin-8-one]", "pIC50": "6.70 to 7.30"}
{"smiles": "CC(C)c1ccccc1-c1ncc2c(n1)n(Cc1ccc(OCC3CCOC3)cc1)c(=O)n2C", "note": "(stereo not drawn) [Compound I-229, 2-(2-isopropylphenyl)-7-methyl-9-(4-((tetrahydrofuran-3-yl)methoxy)benzyl)-7,9-dihydro-8H-purin-8-one]", "pIC50": "6.70 to 7.30"}
{"smiles": "Cn1cc(C(F)(F)F)nc1-c1ccc(Cn2c(=O)n(C)c3cnc(-c4cccnc4N4CC(C(F)(F)F)C4)nc32)cc1", "note": "[Compound I-136, 7-methyl-9-(4-(1-methyl-4-(trifluoromethyl)-1H-imidazol-2-yl)benzyl)-2-(2-(3-(trifluoromethyl)azetidin-1-yl)pyridin-3-yl)-7,9-dihydro-8H-purin-8-one]", "pIC50": "6.70 to 7.30"}
{"smiles": "CC(C)c1ccccc1-c1ncc2c(n1)n(Cc1ccc(OCCCN(C)C)cc1)c(=O)n2C", "note": "[Compound I-234, 9-(4-(3-(dimethylamino)propoxy)benzyl)-2-(2-isopropylphenyl)-7-methyl-7,9-dihydro-8H-purin-8-one]", "pIC50": "< 5.70"}
{"smiles": "CC(C)c1ncccc1-c1ncc2[nH]c(=O)n(Cc3ccc(-c4nc(C(F)(F)F)cn4C4CC4)cc3)c2n1", "note": "[Compound I-76, 9-(4-(1-cyclopropyl-4-(trifluoromethyl)-1H-imidazol-2-yl)benzyl)-2-(2-isopropylpyridin-3-yl)-7,9-dihydro-8H-purin-8-one]", "pIC50": "> 7.30"}
{"smiles": "CC(C)c1ncccc1-c1ncc2[nH]c(=O)n(C3(c4ccc(-c5nc(C(F)(F)F)cn5C)cc4)CC3)c2n1", "note": "[Compound I-51, 2-(2-isopropylpyridin-3-yl)-9-(1-(4-(1-methyl-4-(trifluoromethyl)-1H-imidazol-2-yl)phenyl)cyclopropyl)-7,9-dihydro-8H-purin-8-one]", "pIC50": "> 7.30"}
